Holding throughout (test): Whole-cell patch-clamp block of mutant Kv1.5 current in HEK293 cells
Holding throughout (format): cell-based
Conditions in all cases: 10 μM vernakalant
Background: In patch-clamp work, channel activity is measured electrically.

For assay [1], the target named is T1, Kv1.5 A509G mutant channel (Homo sapiens, UniProt P22460, A509G).
T1 construct: subcloned as a fragment back into full-length Kv1.5; expressed in transfected cells; host or cells: HEK293, transient transfection
From the text:
(§1) Stable lines of HEK293 cells expressing Kv1.5, or transient transfection of mutant Kv1.5 channels were used in all experiments. Primers to generate mutant channels were synthesized by Integrated DNA Technologies, Inc. (Coralville, Iowa, USA), and mutants were generated using the Stratagene Quikchange kit (Stratagene, Calif., USA). The presence of the mutation was confirmed by DNA sequencing, and because of the size of the WT Kv1.5 clone, only the sequenced region harboring the targeted nucleotides was subcloned as a fragment back into full-length Kv1.5. Transient transfections were performed with HEK 293 cells plated at 20-30% confluency on sterile coverslips in 25 mm Petri dishes one day prior to transfection. 0.1-4 μg of ion channel DNA was incubated with 1 μg of eGFP DNA (to enable detection of transfected cells) and 2 μl of lipofectamine 2000 (Invitrogen) in 100 μl of Opti-MEM. This was added to the cells for overnight incubation after washing the media with 900 μl of MEM with 10% FBS.
(§2) The cells were grown in Minimal Essential Medium (MEM) at 37° C. in an air/5% CO2 incubator. Media contained 10% bovine serum and 0.5 mg/ml geneticin for stable lines. On the day before recording, stably-expressing cells were washed with MEM, treated with trypsin/EGTA for one minute and plated on 25 mm^2 coverslips. All cell culture supplies were obtained from Invitrogen (Mississauga, ON, Canada).
(§3) Control bath solution contained (in mM): 5 KCl, 135 NaCl, 2.8 sodium acetate, 1 MgCl2, 10 HEPES and 1 CaCl2, adjusted to pH 7.4 with NaOH. Patch pipettes contained (in mM): 130 KCl, 5 EGTA, 1 MgCl2, 10 HEPES, 4 Na2ATP, and 0.1 GTP, adjusted to pH 7.2 with KOH. […]
(§4) Coverslips with adherent cells plated on the surface were placed in a superfusion chamber (volume 300 μl) containing the control bath solution at 22° C. […] To assess drug block, half-log escalating concentrations of drug were added to the flowing bath solution and current traces were recorded with 400 ms depolarizing pulses to +60 mV at a frequency of 0.1 Hz. […]

Assay [2] has as its target T2, Kv1.5 V481L mutant channel (Homo sapiens, UniProt P22460, V481L).
T2 construct: subcloned as a fragment back into full-length Kv1.5; expressed in transfected cells; host or cells: HEK293, transient transfection
Text: as §1, §2, §3, §4

For assay [3], the target named is T3, Kv1.5 V512L mutant channel (Homo sapiens, UniProt P22460, V512L).
T3 construct: subcloned as a fragment back into full-length Kv1.5; expressed in transfected cells; host or cells: HEK293, transient transfection
Text: as §1, §2, §3, §4

Counter-ions that a name gives are not always drawn.

T3 sequence (P22460 whole entry V512L, the tested form may be a part): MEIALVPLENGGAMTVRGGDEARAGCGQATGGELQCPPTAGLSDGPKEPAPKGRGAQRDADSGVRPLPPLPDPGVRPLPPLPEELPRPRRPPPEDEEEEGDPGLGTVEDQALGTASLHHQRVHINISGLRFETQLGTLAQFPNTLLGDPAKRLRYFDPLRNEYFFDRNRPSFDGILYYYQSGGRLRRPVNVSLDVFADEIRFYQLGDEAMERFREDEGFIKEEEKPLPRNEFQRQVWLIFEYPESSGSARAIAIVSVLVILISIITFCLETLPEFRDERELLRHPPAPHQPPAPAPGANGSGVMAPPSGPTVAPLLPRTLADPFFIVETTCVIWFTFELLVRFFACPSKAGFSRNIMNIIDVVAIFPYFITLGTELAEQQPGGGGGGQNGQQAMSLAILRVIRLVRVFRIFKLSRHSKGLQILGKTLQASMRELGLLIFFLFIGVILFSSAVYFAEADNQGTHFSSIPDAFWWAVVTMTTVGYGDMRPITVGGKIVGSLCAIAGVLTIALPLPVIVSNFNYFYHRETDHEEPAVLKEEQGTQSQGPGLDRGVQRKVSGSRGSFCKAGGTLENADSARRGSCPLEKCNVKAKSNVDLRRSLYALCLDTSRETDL
T2 sequence (P22460 whole entry V481L, the tested form may be a part): as the sequence (P22460 whole entry V512L, the tested form may be a part) above, with V481L, L512V counted along it
T1 sequence (P22460 whole entry A509G, the tested form may be a part): as the sequence (P22460 whole entry V512L, the tested form may be a part) above, with A509G, L512V counted along it

In the case of `COc1ccc(CCO[C@@H]2CCCC[C@H]2N2CC[C@@H](O)C2)cc1OC` [Vernakalant, 3-Pyrrolidinol, 1-[(1R,2R)-2-[2-(3,4-dimethoxyphenyl)ethoxy]cyclohexyl]-,hydrochloride, (3R)], the figures for the “Fractional Block ± SEM” value in assay [1], in assay [2] and in assay [3] were 0.33 ± 0.07, 0.36 ± 0.03 and 0.56 ± 0.04, respectively.

The values are drawn from US20090053721A1, “VOLTAGE-GATED ION CHANNEL MUTANTS FOR USE IN IDENTIFYING ION CHANNEL MODULATING COMPOUNDS” (CARDIOME PHARMA CORP., priority 2007, published 2009).
